“Also recorded” adds a separate entry of the source.
What was measured:
Pseudomonas aeruginosa = assay: Biocidal performance, plate counting of viable bacteria (Example 20); assay type: cell-based; settings: nominal 0.2 ppm total halogen as Cl2, phosphate buffer pH 8.5, 10 minutes at 35° C.
Text: The biocidal performance of the liquid composition of the present invention was compared to a solution of sodium bromide activated using an equimolar amount of sodium hypochlorite bleach, and a solution prepared from 1-bromo-3-chloro-5,5-dimethylhydantoin (BCDMH). Sterile phosphate buffer samples (pH 8.5) were inoculated with Pseudomonas aeruginosa to give a concentration of approximately 5×10^6 bacteria/ml and then challenged with the test systems at a nominal concentration of 0.2 ppm total halogen (as Cl2).
After a contact time of 10 minutes at 35° C., an aliquot of sodium thiosulfate was added to each sample to neutralize the halogen. The level of viable bacteria in each sample was determined by plate counting. Plates were incubated at 35° C. for 48 hours.

[1] = cited from earlier work
[2] = Dissolution of crystalline bromine-containing solid in water; assay type: physicochemical; settings: crystalline solid dissolved in water
Text: The resulting slurry was stirred as solid sodium hydroxide pellets were charged to the reaction flask. […] As the reaction proceeded, a fine powdery precipitate developed which was removed by vacuum filtration. […] Iodometric titration of the resulting golden yellow solution was used to determine its Br2 content of 27.2% (or 12.1% as Cl2). Within a few minutes, this highly concentrated bromine solution started to turn turbid as crystals began to form. The crystallizing solution was chilled in an ice bath to expedite the development of the crystals. A large crop of yellow crystalline material was separated by vacuum filtration, and the mother liquors were retitrated iodometrically. […] There were no insoluble residues. Iodometric titration of resulting solutions was used to calculate that the crystalline solid contained 29.9% Br2 (13.1% as Cl2).
To a stirred reaction flask containing 40% sodium bromide solution was added solid sulfamic acid (82.3 g). The resultant slurry was stirred as 50% sodium hydroxide (60.2 g) was introduced. […] However, the reaction medium became very viscous, and this hampered the mixing efficiency, so deionized water (35.8 g) was added to thin the mixture. The fine powdery precipitate that developed was removed by vacuum filtration. […] The mother liquors were determined to have a bromine content of 20.9% as Br2 (9.3% as Cl2) by iodometric titration. […]

[3] = Heating of crystals in ceramic crucible on hot plate (Example 23); assay type: physicochemical; settings: towel-dried crystals heated on a hot plate
Text: Another large portion of the crystalline mass was dried with a paper towel and placed in a ceramic crucible that was heated on a hot plate.

[4] = Storage stability of anhydrous N-bromosulfamate sodium salt in vacuum dessicator (Example 24); assay type: physicochemical; settings: three months of storage at room temperature in vacuum dessicator
Experimental: A further portion of the towel dried crystals from Example 17 was dehydrated by placing in a vacuum dessicator containing molecular sieves. After 15 days, a loss of 31% of the original weight was determined. Although the crystals lost their glass-like appearance, the rhomobohedral shape was retained.
The sodium salt of anhydrous N-bromosulfamate was placed back in the vacuum dessicator.

For `CC1(C)C(=O)N(Cl)C(=O)N1Br` [BCDMH, 1-bromo-3-chloro-5,5-dimethylhydantoin], the “Log Reduction in viable bacteria/ml” value (Pseudomonas aeruginosa) is given as 3.3 Log, the “Viable bacteria/ml after 10 minutes” value (Pseudomonas aeruginosa; inoculum approx. 5×10^6 bacteria/ml) is given as 2.5 × 10^3 bacteria/ml and the Water solubility ([1]; at 20° C.) is given as 0.1%.

For `O=S(=O)([O-])NBr.[Na+]` [Example 17, sodium salt of hydrated N-bromosulfamate], the Dissolution in water [2] was “dissolved rapidly and completely; also recorded: dissolved quickly and completely” and the “Temperature at which water of crystallization boiled off and product decomposed, evolving bromine vapors” value [3] was “about 221 ° F”.

In the case of `O=S(=O)([O-])NBr.[Na+]` [sodium salt of anhydrous N-bromosulfamate], the “Loss of activity on storage” value [4] is reported as “not to have lost any activity”.

For `O=c1n(Cl)c(=O)n(Cl)c(=O)n1Cl` [trichloroisocyanuric acid], the “Saturated solution in water” value ([1]; at 25° C.) is listed as 1.1 % as Cl2.

Reference: patent US7455859B2, “Highly concentrated bromine compositions and methods of preparation” (Enviro Tech Chemical Services, Inc., priority 2003, dated 2008)
